Records with an inconclusive call do not appear. Calls of active or inactive are those of the source.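 The calls were made as follows: active = fitted curve of rescue activity rises past 40% within the tested concentration range, in every replicate run; inconclusive = replicate runs disagree, some active and some not; inactive = all replicate runs inactive, including effects in the opposite direction.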
Test system: C2C12 myotubes + simvastatin, ATP luminescence, 48 h
Experiment: suppressors of statin-induced myotube ATP loss, dose response, cell-based, differentiated C2C12, luminescence, dry powder (AID 743336)
Conditions: not given
Cc1noc(C)c1S(=O)(=O)Nc1ccc2c(c1)CC(=O)N([C@H](C)CO)C[C@@H](C)[C@@H](CN(C)Cc1ccc(-c3ccccc3)cc1)O2 gave an AC40 of 13.9 µM. With C[C@@H]1CN([C@H](C)CO)C(=O)c2cc(NC(=O)Nc3cccc4ccccc34)ccc2O[C@@H]1CN(C)Cc1ccc(C(=O)Nc2ccccc2N)cc1 the AC40 was 15.9 µM. C[C@@H]1CN([C@@H](C)CO)C(=O)c2cccc(NC(=O)Nc3ccc4c(c3)OCO4)c2O[C@H]1CN(C)Cc1ccc(C(=O)Nc2ccccc2N)cc1 showed an AC40 of 16.2 µM. Work on Cc1noc(C)c1S(=O)(=O)Nc1ccc2c(c1)CC(=O)N([C@H](C)CO)C[C@H](C)[C@@H](CN(C)Cc1ccc(C(F)(F)F)cc1)O2 yielded an AC40 of 16 µM. Work on C[C@H]1CN([C@@H](C)CO)S(=O)(=O)c2ccc(C#Cc3ccc(F)cc3)cc2O[C@@H]1CN(C)S(=O)(=O)c1cn(C)cn1 yielded an AC40 of 18.9 µM. CC(C)=CCC/C(C)=C/CC/C(C)=C/CC/C(C)=C/CO gave an AC40 of 4.38 µM. C[C@@H]1CN([C@H](C)CO)C(=O)Cc2cc(NS(=O)(=O)c3ccc(Cl)cc3)ccc2O[C@H]1CN(C)Cc1ccccc1 gave an AC40 of 15.3 µM. C[C@H]1CN([C@@H](C)CO)C(=O)Cc2cc(NC(=O)CCCCCC(=O)Nc3ccccc3N)ccc2O[C@H]1CN(C)Cc1ccccc1 showed an AC40 of 13.8 µM. For C[C@H]1CN([C@@H](C)CO)C(=O)c2cc(NC(=O)Nc3cccc4ccccc34)ccc2O[C@H]1CN(C)Cc1ccc(C(=O)Nc2ccccc2N)cc1, the AC40 was 13.5 µM. C[C@@H]1CN([C@H](C)CO)C(=O)c2cccc(NC(=O)Nc3ccc4c(c3)OCO4)c2O[C@H]1CN(C)Cc1ccc(C(=O)Nc2ccccc2N)cc1 gave an AC40 of 14.7 µM. COc1ccc(S(=O)(=O)Nc2cccc3c2O[C@H](CN(C)C(=O)Nc2ccc(F)cc2)[C@H](C)CN([C@@H](C)CO)C3=O)cc1 showed an AC40 of 14.5 µM. Work on C[C@@H]1CN([C@@H](C)CO)C(=O)c2cc(NS(=O)(=O)c3ccc(Cl)cc3)ccc2O[C@H]1CN(C)C(=O)Nc1cccc2ccccc12 yielded an AC40 of 14.6 µM. With N#C[C@@H]1[C@@H](c2ccc(C#CC3CCCC3)cc2)[C@H](CO)N1S(=O)(=O)c1ccccc1 the AC40 was 20 µM. Compound N#C[C@@H]1[C@@H](c2ccccc2)[C@H](CO)N1S(=O)(=O)c1ccc(-c2ccccc2)cc1 has an AC40 of 10.6 µM. Cc1ccc(S(=O)(=O)Nc2ccc3c(c2)CC(=O)N([C@@H](C)CO)C[C@@H](C)[C@H](CN(C)Cc2ccc(-c4ccccc4)cc2)O3)cc1 showed an AC40 of 17.5 µM. C[C@H]1CN([C@@H](C)CO)C(=O)Cc2cc(NC(=O)Nc3cccc4ccccc34)ccc2O[C@H]1CN(C)Cc1ccc(C(=O)Nc2ccccc2N)cc1 gave an AC40 of 9.64 µM. With C[C@H](CO)N1C[C@H](C)[C@H](CN(C)CC2CCCCC2)Oc2ccc(NC(=O)CCCCCC(=O)Nc3ccccc3N)cc2CC1=O the AC40 was 9.21 µM.

Test system: not listed separately
Experiment: as above
Conditions: C2C12 myotubes + simvastatin, ATP luminescence, 48 h; at 19.5 µM (top of the series)
For COc1ccc(S(=O)(=O)N(C)C[C@H]2Oc3c(NC(=O)Nc4ccccc4)cccc3C(=O)N([C@H](C)CO)C[C@H]2C)cc1, the rescue activity was 29.2% (inactive). With N#C[C@H]1[C@@H](c2ccc(-c3cccc(F)c3)cc2)[C@H](CO)N1C(=O)NC1CCCC1 the rescue activity was -7.45% (inactive).

— PubChem BioAssay AID743336 (Broad Institute, 2014)
